{"source": "patent US20140263071A1", "about": "“METHOD FOR COLLECTING METALS” (CHEMEC OY AB, priority 2011, published 2014)", "key": {"[1]": {"assay": "Maximum expulsion percent of single metal cations from water solution (Example 8)", "method": "(§1) A water solution (110 ml) containing known amount of single cationic element or elements, typically 0.5-200 ppm, was prepared from Merch Titrisol® standard solution. After adjusting pH by using acid (e.g. HCl or HNO3) or base (e.g. NaOH) to desired initial value, sample A (10 ml) was taken followed by adding 100 mg of selected solid complexation agent. The mixture was stirred at room temperature for 24 h and sample B (10 ml) was taken. Samples A and B were filtrated separately trough 0.2 μm syringe filter and the concentration of the studied element or elements in both solution was determined by using atomic absorption spectrophotometer. The expulsion percent was determined from the concentration differences between the sample solutions A and B.\nThe maximum expulsion percent and pH value in which the value was achieved was determined for each single cationic element using the general procedure mentioned above."}, "[2]": {"assay": "Separation of Cr(III) from Cr(VI) (Example 14)", "conditions": "pH 4.0, 1a 100 mg", "method": "as §1\nAn aqueous solution (100 ml) containing 1.72 ppm of Cr(III) and 1.89 ppm of Cr(VI) was prepared from Merch Titrisol® standard solution and pH was adjusted to 4.0. Following the general procedure described earlier the mixture was treated with 1a (100 mg) and expulsion per for Cr(III) and Cr(VI) were calculated to be 97.0% and 0%, respectively."}, "[3]": {"assay": "Purification of water draining through the dump site, TS 1 (Example 16)", "method": "Drainage water sample was taken from dumping site containing polluted soil: ca. 200 mg/l of Ca^2+ and Mg^2+; 0.05-0.3 mg/l of Al^3+, Ba^2+, Mn^2+, Mo^6+, Ni^2+ and Zn^2+; ≦0.05 mg/l of As^3+ (or As^5+), Cd^2+ and Pb^2+; pH 3.53.\nTest Sample 1 (TS 1, 100 ml), which initial metal cation concentrations were determined by using ICP-AES method, was treated with 1a (1.0 g) with stirring for 24 h. After filtration trough 0.2 μm syringe filter metal concentrations in solution were determined and removal per cents were calculated. Since TS 1 contained only small amounts of As, Cd and Pb, sample was spiked with known amounts of these metal cations. The spiked sample (100 ml) was treated with 1a (1 g) as original TS 1 sample."}, "[4]": {"assay": "Purification of water draining through the dump site, TS 1 (Example 16)", "conditions": "Mo^2+"}}, "note": "Marks after values point to notes of the source that are not given here.", "data": [{"compound": "NCCCCCCCCCCC(O)(P(=O)(O)O)P(=O)(O)O", "note": "[Compound 1a, 11-Amino-1-hydroxyundecane-1,1-diyldiphosphonic acid]", "values": [{"measurement": "Expulsion-% (maximum)", "setting": "[1]; Eu^3+, pH 4.0, initial 5 ppm", "value": 85.3, "unit": "%"}, {"measurement": "Expulsion-% (maximum)", "setting": "[1]; Fe^2+, pH 6.5, initial 1 ppm", "value": 93.0, "unit": "%"}, {"measurement": "Expulsion-% (maximum)", "setting": "[1]; Fe^3+, pH 3.1, initial 1 ppm", "value": 98.9, "unit": "%"}, {"measurement": "Expulsion-% (maximum)", "setting": "[1]; Ga^3+, pH 0.5, initial 50 ppm", "value": 1.0, "unit": "%"}, {"measurement": "Expulsion-% (maximum)", "setting": "[1]; Gd^3+, pH 1.5, initial 100 ppm", "value": 0, "unit": "%"}, {"measurement": "Expulsion-% (maximum)", "setting": "[1]; Hg^2+, pH 5.0, initial 0.1 ppm", "value": 93.0, "unit": "%"}, {"measurement": "Expulsion-% (maximum)", "setting": "[1]; Hg^+, pH 3.0, initial 1 ppm", "value": 89.4, "unit": "%"}, {"measurement": "Expulsion-% (maximum)", "setting": "[1]; In^3+, pH 2.1, initial 20 ppm", "value": 73.4, "unit": "%"}, {"measurement": "Expulsion-% (maximum)", "setting": "[1]; Ir^3+, pH 0.6, initial 100 ppm", "value": 66.1, "unit": "%"}, {"measurement": "Expulsion-% (maximum)", "setting": "[1]; K^+, pH 4.2, initial 1 ppm", "value": 0, "unit": "%"}, {"measurement": "Expulsion-% (maximum)", "setting": "[1]; La^3+, pH 3.0, initial 100 ppm", "value": 54.1, "unit": "%"}, {"measurement": "Expulsion-% (maximum)", "setting": "[1]; Li^+, pH 3.9, initial 0.5 ppm", "value": 4.8, "unit": "%"}, {"measurement": "Expulsion-% (maximum)", "setting": "[1]; Mg^2+, pH 2.9, initial 0.5 ppm", "value": 64.3, "unit": "%"}, {"measurement": "Expulsion-% (maximum)", "setting": "[1]; Mn^2+, pH 3.4, initial 1 ppm", "value": 93.8, "unit": "%"}, {"measurement": "Expulsion-% (maximum)", "setting": "[1]; Mo^6+, pH 8.9, initial 10 ppm", "value": 80.8, "unit": "%"}, {"measurement": "Expulsion-% (maximum)", "setting": "[1]; Na^+, pH 3.9, initial 0.5 ppm", "value": 0, "unit": "%"}, {"measurement": "Expulsion-% (maximum)", "setting": "[1]; Nb^5+, pH 8.5, initial 100 ppm", "value": 100, "unit": "%"}, {"measurement": "Expulsion-% (maximum)", "setting": "[1]; Nd^3+, pH 4.1, initial 100 ppm", "value": 98.1, "unit": "%"}, {"measurement": "Expulsion-% (maximum)", "setting": "[1]; Ni^2+, pH 3.3, initial 1 ppm", "value": 78.6, "unit": "%"}, {"measurement": "Expulsion-% (maximum)", "setting": "[1]; Os^4+, pH 0.5, initial 100 ppm", "value": 85.8, "unit": "%"}, {"measurement": "Expulsion-% (maximum)", "setting": "[1]; Pb^2+, pH 3.2, initial 5 ppm", "value": 99.6, "unit": "%"}, {"measurement": "Expulsion-% (maximum)", "setting": "[1]; Pd^2+, pH 8.0, initial 5 ppm", "value": 77.8, "unit": "%"}, {"measurement": "Expulsion-% (maximum)", "setting": "[1]; Pt^2+, pH 0.5, initial 25 ppm", "value": 70.0, "unit": "%"}, {"measurement": "Expulsion-% (maximum)", "setting": "[1]; Rh^3+, pH 4.0, initial 10 ppm", "value": 77.7, "unit": "%"}, {"measurement": "Expulsion-% (maximum)", "setting": "[1]; Ru^3+, pH 2.0, initial 10 ppm", "value": 48.5, "unit": "%"}, {"measurement": "Expulsion-% (maximum)", "setting": "[1]; Sb^3+, pH 3.0, initial 10 ppm", "value": 100, "unit": "%"}, {"measurement": "Expulsion-% (maximum)", "setting": "[1]; Sc^3+, pH 2.0, initial 5 ppm", "value": 100, "unit": "%"}, {"measurement": "Expulsion-% (maximum)", "setting": "[1]; Si^4+, pH 1.0, initial 50 ppm", "value": 1.3, "unit": "%"}, {"measurement": "Expulsion-% (maximum)", "setting": "[1]; Sn^2+, pH 7.0, initial 50 ppm", "value": 98.1, "unit": "%"}, {"measurement": "Expulsion-% (maximum)", "setting": "[1]; Sn^4+, pH 10.3, initial 200 ppm", "value": 100, "unit": "%"}, {"measurement": "Expulsion-% (maximum)", "setting": "[1]; Sr^2+, pH 5.0, initial 2 ppm", "value": 93.2, "unit": "%"}, {"measurement": "Expulsion-% (maximum)", "setting": "[1]; Ti^4+, pH 9.8, initial 50 ppm", "value": 48.8, "unit": "%"}, {"measurement": "Expulsion-% (maximum)", "setting": "[1]; U^6+, pH 3.4, initial 2.5 ppm", "value": 87.6, "unit": "%"}, {"measurement": "Expulsion-% (maximum)", "setting": "[1]; V^4+, pH 0.5, initial 100 ppm", "value": 69.3, "unit": "%"}, {"measurement": "Expulsion-% (maximum)", "setting": "[1]; W^6+, pH 1.6, initial 50 ppm", "value": 12.0, "unit": "%"}, {"measurement": "Expulsion-% (maximum)", "setting": "[1]; Y^3+, pH 2.1, initial 25 ppm", "value": 89.1, "unit": "%"}, {"measurement": "Expulsion-% (maximum)", "setting": "[1]; Zn^2+, pH 3.7, initial 0.5 ppm", "value": 94.7, "unit": "%"}, {"measurement": "Expulsion-% (maximum)", "setting": "[1]; Zr^4+, pH 0.5, initial 100 ppm", "value": 81.5, "unit": "%"}, {"measurement": "expulsion per cent for Cr(III)", "setting": "[2]; 1.72 ppm Cr(III) with 1.89 ppm Cr(VI)", "value": 97.0, "unit": "%"}, {"measurement": "expulsion per cent for Cr(VI)", "setting": "[2]; 1.89 ppm Cr(VI) with 1.72 ppm Cr(III)", "value": 0, "unit": "%"}, {"measurement": "Expulsion [%]", "setting": "[3]; Spiked TS 1, Al^3+", "value": 67, "unit": "%"}, {"measurement": "Expulsion [%]", "setting": "[3]; Spiked TS 1, As^3/5+", "value": 0, "unit": "%"}, {"measurement": "Expulsion [%]", "setting": "[3]; Spiked TS 1, Ba^2+", "value": 26, "unit": "%"}, {"measurement": "Expulsion [%]", "setting": "[3]; Spiked TS 1, Ca^2+", "value": 48, "unit": "%"}, {"measurement": "Expulsion [%]", "setting": "[3]; Spiked TS 1, Cd^2+", "value": 96, "unit": "%"}, {"measurement": "Expulsion [%]", "setting": "[3]; Spiked TS 1, Mg^2+", "value": 78, "unit": "%"}, {"measurement": "Expulsion [%]", "setting": "[3]; Spiked TS 1, Mn^2+", "value": "≥ 51^2) %"}, {"measurement": "Expulsion [%]", "setting": "[3]; Spiked TS 1, Ni^2+", "value": 33, "unit": "%"}, {"measurement": "Expulsion [%]", "setting": "[3]; Spiked TS 1, Pb^2+", "value": 94, "unit": "%"}, {"measurement": "Expulsion [%]", "setting": "[3]; Spiked TS 1, Zn^2+", "value": 90, "unit": "%"}, {"measurement": "Expulsion [%]", "setting": "[3]; TS 1, Al^3+", "value": 76, "unit": "%"}, {"measurement": "Expulsion [%]", "setting": "[3]; TS 1, Ba^2+", "value": 32, "unit": "%"}, {"measurement": "Expulsion [%]", "setting": "[3]; TS 1, Ca^2+", "value": 51, "unit": "%"}, {"measurement": "Expulsion [%]", "setting": "[3]; TS 1, Mg^2+", "value": 81, "unit": "%"}, {"measurement": "Expulsion [%]", "setting": "[3]; TS 1, Mn^2+", "value": "≥ 57^2) %"}, {"measurement": "Expulsion [%]", "setting": "[3]; TS 1, Ni^2+", "value": 50, "unit": "%"}, {"measurement": "Expulsion [%]", "setting": "[3]; TS 1, Zn^2+", "value": 89, "unit": "%"}, {"measurement": "Expulsion [%]", "setting": "[4]; Spiked TS 1", "value": "≥ 52^2) %"}, {"measurement": "Expulsion [%]", "setting": "[4]; TS 1", "value": "≥ 58^2) %"}]}]}
